Experimental data from a compilation of properties of binary mixtures (doi:10.1007/s10953-010-9562-5).

Assay: xn = mol fraction of the nth substance listed
Conditions: 101 kPa

Structure (SMILES): CCCC[N+]1(C)CCCC1.O=S(=O)([N-]S(=O)(=O)C(F)(F)F)C(F)(F)F + CC1COC(=O)O1
- electrical conductivity (293.15 K, x2 = 0.68): 0.843 S/m
- viscosity (293.15 K, x2 = 0.68): 12.36 mPa·s
- electrical conductivity (293.15 K, x2 = 0.74): 0.884 S/m
- viscosity (293.15 K, x2 = 0.74): 9.88 mPa·s
- electrical conductivity (293.15 K, x2 = 0.84): 0.908 S/m
- viscosity (293.15 K, x2 = 0.84): 6.05 mPa·s
- electrical conductivity (293.15 K, x2 = 0.89): 0.853 S/m
- viscosity (293.15 K, x2 = 0.89): 4.71 mPa·s
- electrical conductivity (293.15 K, x2 = 0.95): 0.692 S/m
- viscosity (293.15 K, x2 = 0.95): 3.65 mPa·s
- electrical conductivity (293.15 K, x2 = 0.97): 0.582 S/m
- electrical conductivity (298.15 K, x2 = 0): 0.364 S/m
- viscosity (298.15 K, x2 = 0): 68.16 mPa·s
- electrical conductivity (298.15 K, x2 = 0.05): 0.394 S/m
- viscosity (298.15 K, x2 = 0.05): 56.05 mPa·s
- electrical conductivity (298.15 K, x2 = 0.11): 0.425 S/m
- viscosity (298.15 K, x2 = 0.11): 47.09 mPa·s
- electrical conductivity (298.15 K, x2 = 0.16): 0.46 S/m
- viscosity (298.15 K, x2 = 0.16): 40.44 mPa·s
- electrical conductivity (298.15 K, x2 = 0.21): 0.497 S/m
- viscosity (298.15 K, x2 = 0.21): 35.42 mPa·s
- electrical conductivity (298.15 K, x2 = 0.26): 0.538 S/m
- viscosity (298.15 K, x2 = 0.26): 31.51 mPa·s
- electrical conductivity (298.15 K, x2 = 0.47): 0.73 S/m
- viscosity (298.15 K, x2 = 0.47): 20.25 mPa·s
- electrical conductivity (298.15 K, x2 = 0.53): 0.784 S/m
- viscosity (298.15 K, x2 = 0.53): 17.72 mPa·s
- electrical conductivity (298.15 K, x2 = 0.58): 0.839 S/m
- viscosity (298.15 K, x2 = 0.58): 15.23 mPa·s
- electrical conductivity (298.15 K, x2 = 0.68): 0.942 S/m
- viscosity (298.15 K, x2 = 0.68): 10.56 mPa·s
- electrical conductivity (298.15 K, x2 = 0.74): 0.982 S/m
- viscosity (298.15 K, x2 = 0.74): 8.51 mPa·s
- electrical conductivity (298.15 K, x2 = 0.79): 1 S/m
- viscosity (298.15 K, x2 = 0.79): 6.74 mPa·s
- electrical conductivity (298.15 K, x2 = 0.84): 0.997 S/m
- viscosity (298.15 K, x2 = 0.84): 5.29 mPa·s
- electrical conductivity (298.15 K, x2 = 0.89): 0.934 S/m
- viscosity (298.15 K, x2 = 0.89): 4.14 mPa·s
- electrical conductivity (298.15 K, x2 = 0.95): 0.757 S/m
- viscosity (298.15 K, x2 = 0.95): 3.26 mPa·s
- electrical conductivity (298.15 K, x2 = 0.97): 0.628 S/m
- electrical conductivity (303.15 K, x2 = 0): 0.426 S/m
- viscosity (303.15 K, x2 = 0): 54.05 mPa·s
- electrical conductivity (303.15 K, x2 = 0.05): 0.458 S/m
- viscosity (303.15 K, x2 = 0.05): 44.95 mPa·s
- electrical conductivity (303.15 K, x2 = 0.11): 0.494 S/m
- viscosity (303.15 K, x2 = 0.11): 38.15 mPa·s
- electrical conductivity (303.15 K, x2 = 0.16): 0.532 S/m
- viscosity (303.15 K, x2 = 0.16): 33.05 mPa·s
- electrical conductivity (303.15 K, x2 = 0.26): 0.618 S/m
- viscosity (303.15 K, x2 = 0.26): 26.04 mPa·s
- electrical conductivity (303.15 K, x2 = 0.32): 0.666 S/m
- viscosity (303.15 K, x2 = 0.32): 23.45 mPa·s
- electrical conductivity (303.15 K, x2 = 0.37): 0.717 S/m
- viscosity (303.15 K, x2 = 0.37): 21.15 mPa·s
- electrical conductivity (303.15 K, x2 = 0.47): 0.828 S/m
- viscosity (303.15 K, x2 = 0.47): 16.91 mPa·s
- electrical conductivity (303.15 K, x2 = 0.53): 0.886 S/m
- viscosity (303.15 K, x2 = 0.53): 14.85 mPa·s
- electrical conductivity (303.15 K, x2 = 0.58): 0.944 S/m
- viscosity (303.15 K, x2 = 0.58): 12.83 mPa·s
- electrical conductivity (303.15 K, x2 = 0.68): 1.05 S/m
- viscosity (303.15 K, x2 = 0.68): 9.03 mPa·s
- electrical conductivity (303.15 K, x2 = 0.79): 1.11 S/m
- viscosity (303.15 K, x2 = 0.79): 5.9 mPa·s
- electrical conductivity (303.15 K, x2 = 0.89): 1.02 S/m
- viscosity (303.15 K, x2 = 0.89): 3.7 mPa·s
- electrical conductivity (303.15 K, x2 = 0.95): 0.826 S/m
- viscosity (303.15 K, x2 = 0.95): 2.93 mPa·s
- electrical conductivity (303.15 K, x2 = 0.97): 0.652 S/m
- electrical conductivity (308.15 K, x2 = 0): 0.505 S/m
- viscosity (308.15 K, x2 = 0): 44.38 mPa·s
- electrical conductivity (308.15 K, x2 = 0.05): 0.54 S/m
- viscosity (308.15 K, x2 = 0.05): 36.9 mPa·s
- electrical conductivity (308.15 K, x2 = 0.11): 0.578 S/m
- viscosity (308.15 K, x2 = 0.11): 31.36 mPa·s
- electrical conductivity (308.15 K, x2 = 0.16): 0.619 S/m
- viscosity (308.15 K, x2 = 0.16): 27.23 mPa·s
- electrical conductivity (308.15 K, x2 = 0.21): 0.663 S/m
- viscosity (308.15 K, x2 = 0.21): 24.11 mPa·s
- electrical conductivity (308.15 K, x2 = 0.26): 0.711 S/m
- viscosity (308.15 K, x2 = 0.26): 21.64 mPa·s
- electrical conductivity (308.15 K, x2 = 0.32): 0.762 S/m
- viscosity (308.15 K, x2 = 0.32): 19.59 mPa·s
- electrical conductivity (308.15 K, x2 = 0.42): 0.872 S/m
- viscosity (308.15 K, x2 = 0.42): 16.04 mPa·s
- electrical conductivity (308.15 K, x2 = 0.47): 0.931 S/m
- viscosity (308.15 K, x2 = 0.47): 14.35 mPa·s
- electrical conductivity (308.15 K, x2 = 0.53): 0.992 S/m
- viscosity (308.15 K, x2 = 0.53): 12.68 mPa·s
- electrical conductivity (308.15 K, x2 = 0.58): 1.05 S/m
- viscosity (308.15 K, x2 = 0.58): 11.01 mPa·s
- electrical conductivity (308.15 K, x2 = 0.63): 1.11 S/m
- viscosity (308.15 K, x2 = 0.63): 9.39 mPa·s
- electrical conductivity (308.15 K, x2 = 0.68): 1.16 S/m
- viscosity (308.15 K, x2 = 0.68): 7.85 mPa·s
- electrical conductivity (308.15 K, x2 = 0.74): 1.2 S/m
- viscosity (308.15 K, x2 = 0.74): 6.44 mPa·s
- electrical conductivity (308.15 K, x2 = 0.79): 1.22 S/m
- viscosity (308.15 K, x2 = 0.79): 5.2 mPa·s
- electrical conductivity (308.15 K, x2 = 0.84): 1.2 S/m
- viscosity (308.15 K, x2 = 0.84): 4.17 mPa·s
- electrical conductivity (308.15 K, x2 = 0.89): 1.11 S/m
- viscosity (308.15 K, x2 = 0.89): 3.34 mPa·s
- electrical conductivity (308.15 K, x2 = 0.95): 0.892 S/m
- viscosity (308.15 K, x2 = 0.95): 2.68 mPa·s
- electrical conductivity (308.15 K, x2 = 0.97): 0.691 S/m
- electrical conductivity (313.15 K, x2 = 0): 0.57 S/m
- viscosity (313.15 K, x2 = 0): 35.76 mPa·s
- electrical conductivity (313.15 K, x2 = 0.05): 0.611 S/m
- viscosity (313.15 K, x2 = 0.05): 30.14 mPa·s
- electrical conductivity (313.15 K, x2 = 0.11): 0.654 S/m
- viscosity (313.15 K, x2 = 0.11): 25.92 mPa·s
- electrical conductivity (313.15 K, x2 = 0.16): 0.701 S/m
- viscosity (313.15 K, x2 = 0.16): 22.74 mPa·s
- electrical conductivity (313.15 K, x2 = 0.26): 0.803 S/m
- viscosity (313.15 K, x2 = 0.26): 18.29 mPa·s
- electrical conductivity (313.15 K, x2 = 0.37): 0.916 S/m
- viscosity (313.15 K, x2 = 0.37): 15.11 mPa·s
- electrical conductivity (313.15 K, x2 = 0.42): 0.975 S/m
- viscosity (313.15 K, x2 = 0.42): 13.68 mPa·s
- electrical conductivity (313.15 K, x2 = 0.53): 1.1 S/m
- viscosity (313.15 K, x2 = 0.53): 10.88 mPa·s
- electrical conductivity (313.15 K, x2 = 0.58): 1.16 S/m
- viscosity (313.15 K, x2 = 0.58): 9.5 mPa·s
- electrical conductivity (313.15 K, x2 = 0.63): 1.21 S/m
- viscosity (313.15 K, x2 = 0.63): 8.15 mPa·s
- electrical conductivity (313.15 K, x2 = 0.68): 1.26 S/m
- viscosity (313.15 K, x2 = 0.68): 6.87 mPa·s
- electrical conductivity (313.15 K, x2 = 0.74): 1.29 S/m
- viscosity (313.15 K, x2 = 0.74): 5.69 mPa·s
- electrical conductivity (313.15 K, x2 = 0.89): 1.18 S/m
- viscosity (313.15 K, x2 = 0.89): 3.02 mPa·s
- electrical conductivity (313.15 K, x2 = 0.95): 0.946 S/m
- viscosity (313.15 K, x2 = 0.95): 2.45 mPa·s
- viscosity (318.15 K, x2 = 0.11): 21.73 mPa·s
- viscosity (318.15 K, x2 = 0.16): 19.16 mPa·s
- viscosity (318.15 K, x2 = 0.21): 17.18 mPa·s
- viscosity (318.15 K, x2 = 0.26): 15.58 mPa·s
- viscosity (318.15 K, x2 = 0.32): 14.22 mPa·s
- viscosity (318.15 K, x2 = 0.37): 12.99 mPa·s
- viscosity (318.15 K, x2 = 0.42): 11.81 mPa·s
- viscosity (318.15 K, x2 = 0.53): 9.47 mPa·s
- viscosity (318.15 K, x2 = 0.58): 8.3 mPa·s
- viscosity (318.15 K, x2 = 0.63): 7.16 mPa·s
- viscosity (318.15 K, x2 = 0.68): 6.06 mPa·s
- viscosity (318.15 K, x2 = 0.74): 5.05 mPa·s
- viscosity (318.15 K, x2 = 0.79): 4.16 mPa·s
- viscosity (318.15 K, x2 = 0.84): 3.39 mPa·s
- viscosity (318.15 K, x2 = 0.95): 2.26 mPa·s
